Reference: ChEMBL document CHEMBL4017531, “Design and Structure-Guided Development of Novel Inhibitors of the Xeroderma Pigmentosum Group A (XPA) Protein-DNA Interaction” (J Med Chem, 2017)
pIC50: −log10 of the molar value. Activity calls are given as the source filed them. The calls are words filed in the database; no cut-off is given here.

Columns and labels:
[1] = tested on: Salmonidae; experiment: Binding affinity to salmon sperm DNA assessed as DNA intercalation by SYBR-green dye based fluorescence assay
[2] = organism: Homo sapiens; details: 10 uM
Description: Inhibition of RPA (unknown origin) at 10 uM by EMSA assay

[3] = molecular target: DNA repair protein complementing XP-A cells (Homo sapiens, UniProt P23025); experiment: Inhibition of full length human XPA expressed in Sf9 cells assessed as reduction in interaction of XPA with 32P-labeled cisplatin-modified dsDNA by EMSA
Sequence of DNA repair protein complementing XP-A cells (P23025 whole entry): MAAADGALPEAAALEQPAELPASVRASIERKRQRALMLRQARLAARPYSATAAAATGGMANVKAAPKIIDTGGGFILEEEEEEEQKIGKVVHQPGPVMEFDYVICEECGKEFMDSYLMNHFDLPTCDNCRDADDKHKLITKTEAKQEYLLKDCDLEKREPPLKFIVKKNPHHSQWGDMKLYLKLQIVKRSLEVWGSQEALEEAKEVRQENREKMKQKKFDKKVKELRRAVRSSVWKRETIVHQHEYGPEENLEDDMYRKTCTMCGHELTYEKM

SMILES	Activity [1]	inhibition [2]	pIC50 [3]
CC1=NN(c2ccc(Cl)c(C(=O)O)c2)C(=O)/C1=C\c1ccc(-c2ccc(Cl)c(C(=O)OCc3ccccc3Cl)c2)o1	Active	inactive	
CC1=NN(c2cccc(C(=O)O)c2)C(=O)/C1=C\c1ccc(-c2ccc(Cl)c(C(=O)NCc3ccc(F)cc3)c2)o1	inactive		
CC1=NN(c2cccc(C(=O)O)c2)C(=O)/C1=C\c1ccc(-c2ccc(C(=O)NCC3CC3)cc2)o1			< 4.30
CC1=NN(c2ccc(Cl)c(C(=O)O)c2)C(=O)/C1=C\c1ccc(-c2ccc(Cl)c(C(=O)OCc3ccccc3)c2)o1	Active	inactive	
CC1=NN(c2ccc(C(=O)O)cc2)C(=O)/C1=C\c1ccc(-c2ccc(Cl)c(C(=O)NCC3CC3)c2)o1	inactive	inactive	
CCOC(=O)c1cccc(N2N=C(C)/C(=C/c3ccc(-c4ccc(Cl)c(C(=O)NCc5ccc(F)cc5)c4)o3)C2=O)c1			< 4.60
CC1=NN(c2cccc(C(=O)O)c2)C(=O)/C1=C\c1ccc(-c2ccc(Cl)c(C(=O)NCC3CC3)c2)o1	inactive		
CC1=NN(c2ccc(C(=O)O)cc2)C(=O)/C1=C\c1ccc(-c2ccc(C(=O)NCc3ccc(F)cc3)cc2)o1	inactive		
CC1=NN(c2cccc(C(=O)NCC3CC3)c2)C(=O)/C1=C\c1ccc(-c2ccc(Cl)c(C(=O)NCC3CC3)c2)o1			< 4.30
CC1=NN(c2ccc(C(=O)O)cc2)C(=O)/C1=C\c1ccc(-c2ccc(Cl)c(C(=O)NCc3ccc(F)cc3)c2)o1	inactive	inactive	
CC1=NN(c2cccc(C(=O)O)c2)C(=O)/C1=C\c1ccc(-c2ccc(C(=O)NCc3ccc(F)cc3)cc2)o1			< 4.30
